For 38 molecules, IC90 results are on record in PubChem BioAssay AID434955 (Southern Research Specialized Biocontainment Screening …, 2010).

Each structure is given as a SMILES string.

This assay relates to M. tuberculosis H37Rv growth with meropenem, percent inhibition. Nature of the assay: beta-lactam sensitization of Mtb H37Rv, H37Rv (AID 434955).
In general, IC90 refers to the concentration at which the effect reaches the 90% level. Turning to `CC1CCN(CC(CS(=O)(=O)c2ccc([N+](=O)[O-])cc2)N2CCC(C)CC2)CC1` (stereo not drawn), the IC90 was 31.5 µM.

`COc1ccc(N2C(=O)NC(=O)/C(=C\c3ccc([N+](=O)[O-])s3)C2=O)cc1`: the IC90 is 21.3 µM.

Consider `CN(C)C1=C(Cl)C(=O)N(c2ccc(Cl)c(Cl)c2)C1=O`, for which the IC90 is 14.9 µM.

As to `Cc1cc(=O)[nH]c(N/N=C/c2c(F)c(F)c(F)c(F)c2F)n1`, the concentration for an effect of 90% (IC90) was 82.3 µM.

Consider `CC1CCCN(C(=O)C2CCN(c3ncnc4c3nc3n4CCCCC3)CC2)C1` (stereo not drawn), for which the IC90 was 49.7 µM.

Turning to `CCOC(=O)COc1ccc2nsnc2c1`, the IC90 was 26 µM.

For the molecule `CCOC(=O)c1c(NC(=O)COC(=O)c2ncc(Cl)c(Cl)c2Cl)sc(C(=O)N(C)C)c1C`, the IC90 was 27.7 µM.

As for `CC1CCc2c(sc(NC(=O)CCCn3cnc([N+](=O)[O-])n3)c2C(N)=O)C1` (stereo not drawn), the IC90 is 90.4 µM.

As to `S=C(NNc1ccc2ccccc2c1)NC1CCCCC1`, the IC90 is 41.3 µM.

For `CN(C)CCCN(C(=O)/C=C/c1cccs1)c1nc2ccc(F)cc2s1`, the IC90 is 48.4 µM.

As for `Cc1ccc(C(=O)Nc2c(C)cc(C)c3cccnc23)cc1`, the IC90 is 10.5 µM.

For `O=C(/C=C/c1ccccn1)c1cc(Br)ccc1O`, the IC90 was 45.1 µM.

Turning to `CCOC(=O)C1CSC(CC(=O)Nc2ccc(Cl)c(Cl)c2)C(=O)N1` (stereo not drawn), the IC90 is 35.4 µM.

Take `Cc1cccc(N2CCN(CC3CCCCC3)CC2)c1C`: the IC90 was 53.2 µM.

Turning to `CCc1cc2c(-c3ccccc3)cc(=O)oc2cc1OC(C)C(C)=O` (stereo not drawn), the IC90 was 48.5 µM.

For the molecule `COc1ccc(C(=O)CN(C(=O)c2ccc(Cl)cc2)N2C(=O)c3ccccc3C2=O)cc1`, the IC90 was 22.4 µM.

Consider `Cc1ccc(C(=O)N/C(=C\c2ccc(-c3ccc(Cl)cc3)o2)C(=O)NCCCN(C)C)cc1`, for which the IC90 is 23.7 µM.

As to `CCCc1cc(NC(=O)COC(=O)c2nccnc2N)n(-c2ccccc2)n1`, the IC90 was 50.8 µM.

For `O=C(CCNc1ccccc1)c1cccc([N+](=O)[O-])c1`, the IC90 was 45.8 µM.

As for `O=C(N/N=C/c1c(O)n(Cc2ccc(F)cc2)c(=S)[nH]c1=O)c1ccncc1`, the IC90 is 9.8 µM.

For `CCC(CC)c1nnc(NC(=O)c2ccc(N3CCCCC3)c([N+](=O)[O-])c2)s1`, the IC90 is 44 µM.

Take `CCC(C(=O)NC1C(=O)N2C(C(=O)O)=C(CSc3nnc(C)s3)CSC12)c1ccccc1` (stereo not drawn): the IC90 was 1.57 µM.

Take `Cc1cc(C)n(-c2nc3ccccc3c(=O)n2OCC(=O)N(C)C)n1`: the IC90 was 23.3 µM.

As for `CCc1cc(C(=O)O)c(NC(=O)/C=C/c2ccc(OC)cc2)s1`, the IC90 is 59.7 µM.

On to `COc1ccccc1NS(=O)(=O)c1cccc(N2CC(O)=C(c3ccccc3)C2=N)c1`, for which the IC90 is 16 µM.

`C[C@H]1C=CC(=O)O[C@H]1c1ccccc1`: the IC90 was 49.5 µM.

`CCn1cc(C(=O)O)c(=O)c2cc(F)c(N3CCN(C(=S)NC(=O)c4ccccc4C)CC3)cc21`: the IC90 is 16 µM.

For `Cc1ccccc1NC(=O)/C(C#N)=C\c1cc(C)n(-c2ccc(C(=O)O)cc2)c1C`, the IC90 is 51.1 µM.

For the molecule `O=C1COc2ccc(C(=O)CCl)cc2N1`, the IC90 is 44.4 µM.

`COc1ccccc1-c1cc(C(=O)Nc2c(C)n(C)n(-c3ccccc3)c2=O)no1`: the IC90 was 19.5 µM.

Regarding `O=c1oc(-c2ccco2)nc2sc3c(c12)CCCCC3`, the IC90 was 38.5 µM.

For `CC(=O)c1ccc(OC(=O)N(c2ccccc2)c2ccccc2)cc1`, the IC90 is 32.9 µM.

Take `O=C1C(Cl)=C(N2CCCCCC2)C(=O)N1c1ccc(Br)cc1`: the IC90 is 19.4 µM.

`Cc1ccc(C2=N/C(=C\c3cccc(F)c3)C(=O)O2)cc1`: the IC90 was 4.02 µM.

With `O=[N+]([O-])c1cc(Cl)cc(/C=N/NC(=S)Nc2cc(S(=O)(=O)N3CCOCC3)ccc2Cl)c1O`, the IC90 is 29.3 µM.

For the molecule `CCCCCn1c(=O)c(C(=O)Nc2cnccn2)c(O)c2ccccc21`, the 90% effect concentration (IC90) was 13.8 µM.

Take `Cc1ccc(C)c(N2CCN(C3CCCC(C)C3)CC2)c1` (stereo not drawn): the IC90 was 48.2 µM.

Take `CCOC(=O)c1ccc(C(=O)NNC(=O)C2CC=CCC2)cc1` (stereo not drawn): the IC90 was 40 µM.
